In patent publication US6984496B2, “Vitro assay for testing gabapentinoid activity” (Warner-Lambert Company, priority 2001, dated 2006):
Ends that are not written are not given here.

Experiments:
[1] = system: NK1 mediated Elk-1 transcription; assay: NK1 mediated Elk-1 luciferase reporter assay in CHO-NK-1 cells stimulated with substance P; conditions: substance P 20 nM, 4 hours
Description: CHO-NK-1 cells were seeded to plates and grown to confluency overnight. Lipofectamine transfection was performed on the confluent cells to insert Elk-1 and luciferase vectors necessary for a MAP kinase dependent reporter system. Prior to transfection, the cells were washed in OPTI media (Gibco). To each confluent well in a 24-well plate, 20 ng of Elk-1 and 200 ng of luciferase DNA vectors were added. In addition to the vectors, 1.5 μL of Lipofectamine Reagent (Gibco) and OPTI media (Gibco) were also added for a total transfection volume of 200 μL (a master mix was made prior to use). After a 3-hour incubation, the media was changed to F-12 growing media (500 μL/well) for an additional 3-hour incubation. After the second incubation, the media was changed again to DMEM (500 μL/well) for serum starvation and incubated overnight (all incubations at 37° C.).
In addition, lipofectamine transfection was performed on CHO-NK-1 confluent cells to insert a GAL4-Elk-1 fusion protein and luciferase vector using the methods described above.
The DMEM media was decanted off the plate, and the cells were washed with 500 μL of Kreb buffer. After the wash, 460 μL of Kreb buffer containing 2 mM sodium pyruvate was added to each well and incubated for 30 minutes at 37° C. Next, 20 μL of compound was added to each well at the desired concentration and incubated for another 30 minutes. […] Finally, the cells were stimulated with Substance-P (final concentration=20 nM), and the cells were incubated for 4 hours at 37° C. After the 4-hour incubation, the buffer was decanted off the plate, and the plate was washed twice with Dulbecco's-PBS. Cells were lysed with 100 μL per well of cell Lysis Buffer (Promega), and the plate was vortexed for 10 minutes. Finally, 10 μL of the cell lysate was transferred to a 96-well reader plate, and each well's luminescence was measured using a luminometer (the Promega Luciferase Reporter system was used).

Jun kinase = Jun kinase activation in CHO-NK-1 cells, Western blot with activation-specific antibodies; type: cell-based, Chinese Hamster; conditions: 10 nM substance-P, data not shown
From the text: (§1) Since P38 and Jun kinases are closely related to MAP kinase, the effects of substance-P on these kinases was examined.

P38 = P38 activation in CHO-NK-1 cells, Western blot with activation-specific antibodies; type: cell-based, Chinese Hamster; conditions: 10 nM substance-P, data not shown
From the text: as §1

MAP kinase = MAP kinase activation in CHO-NK-1 cells, Western blot with activation-specific antibodies; type: cell-based, Chinese Hamster; conditions: 10 nM substance-P, data not shown
[2] = system: rat mGluR5 mediated Erk-2 phosphorylation; assay: mGluR5 mediated Erk phosphorylation in CHO-mGluR5 cells, Western blot with anti-pErk antibody; type: cell-based
Description: . Products from treated cells were analyzed by Western blotting with anti-pErk antibody.
CHO cells engineered to express mGluR5 (CHO-mGluR5 cells) were plated in 12-well tissue culture plates at a density of 20,000 cells/well and grown for 24 hours, followed by further culturing in serum free medium for 16 hours. CHO-mGluR5 cells were incubated in Krebs buffer for 30 minutes at which time 1 mM sodium pyruvate and 10 μ/mL glutamic-pyruric transaminase was added. […] . […] Proteins in cell extracts were separated by SDS-PAGE and transferred to nitrocellulose membrane. The membrane was blocked overnight at 4° C. with 4% BSA in Tris-buffered saline containing 0.2% (v/v) Tween 20 (TBST). The membrane was then incubated for 1 hour at room temperature (RT) with antiphospho MAP kinase antibody (1:1000 dilution) in 1% BSA and TBST, then washed with TBST followed by incubation with antirabbit IgG HRP antibody. After a final wash with TBST, the membrane was visualized using enhanced chemiluminescence reagents.
Activation of Erk-1 and -2 by stimulating CHO-mGluR5 cells with 100 μM quisqualate was examined by using an antibody specific to phosphorylated Erk-1 and -2. As shown in FIG. 1 (Lane 1), there was little phosphorylated Erk-1 and -2 in unstimulated CHO cells. […] .

[3] = system: PMA mediated Erk-2 phosphorylation; assay: PMA mediated Erk-2 phosphorylation in differentiated IMR-32 cells, Western blot; type: cell-based, human; conditions: 30 minutes preincubation, PMA stimulation
Description: […]. Differentiated IMR-32 cells were pretreated with indicated concentrations of gabapentin for 30 minutes and then stimulated with PMA for 10 minutes. Products from treated cells were analyzed by Western blotting with anti-pErk antibody.
IMR-32 cells were grown in MEM media (Gibco BRL, 11095-080), supplemented with 10% fetal bovine serum (Gibco BRL, 26140-087), 1% antibiotic-antimycotic (Gibco BRL, 15240-096), and 1% L-glutamine (Gibco BRL, 25030-032). Cells, grown to confluency, were differentiated for a period of 7 to 10 days, or longer, by adding 1 mM dibutyryl cAMP (Sigma D-0627) and 2.5 μM 5-bromo-2-deoxyuridine (Sigma B-9285) to the media. The differentiation media was fed continuously to cells until the cells were used in an experiment. Cells were divided into groups and preincubated for 30 minutes either in the presence or absence of indicated concentration of gabapentin then subsequently challenged with 50 nM PMA for […]. […]. Proteins in cell extracts were separated by SDS-PAGE and transferred to nitrocellulose membrane. The nitrocellulose membrane was blocked overnight at 4° C. with 4% BSA in Tris-buffered saline containing 0.2% (v/v) Tween 20 (TBST). The membrane was then incubated for 1 hour at RT with antiphospho MAP kinase antibody (1:1000 dilution) in 1% BSA and TBST, then washed with TBST followed by incubation with antirabbit IgG HRP antibody. […]

[4] = system: PMA mediated Elk-1 transcription in CHO cells; assay: PMA mediated Elk-1 reporter assay in CHO cells
Description: (§2) PKC competent cells are stimulated with PMA, preferably in the range of 50 nM, to activate Erk-2. Activated Erk-2, as discussed above, activates Elk-1 which induces reporter gene expression. […] As above, cells may be incubated with the target compound before treatment with PMA.

[5] = system: PMA mediated Elk-1 transcription in IMR-32 cells; assay: PMA mediated Elk-1 reporter assay in IMR-32 cells; conditions: 50 nM PMA
Description: as §2

CC(C)C[C@H](CN)CC(=O)O [pregabalin]
inhibition of Elk-1 mediated luciferase activity elicited by substance P [1]: dose dependent inhibition

substance-P: a tackykinin neuropeptide that acts through the NK1, NK2, and NK3 receptors (RPKPQQFFGLM-NH2; ends and bridges not checked; UniProt P20366 58-68, looked up)
activation of Jun kinase (Jun kinase): no effect
activation of P38 (P38): no effect
activation of MAP kinase (MAP kinase): significantly activated

NCC1(CC(=O)O)CCCCC1 [gabapentin, 1-(aminomethyl) cyclohexaneacetic acid]
reduction of quisqualate activated phosphorylated Erk-2 ([2]; 100 μM compound preincubated 30 minutes, 100 μM quisqualate 5 minutes, CHO-mGluR5 cells): 50%
phosphorylated Erk-1 and -2 in the absence of quisqualate ([2]; gabapentin treated CHO-mGluR5 cells, no quisqualate (Lane 3)): little or no phosphorylated Erk-1 and -2
inhibition of Elk-1 mediated luciferase activity elicited by substance P [1]: dose dependent inhibition
effect on PMA increased Erk-2 phosphorylation [3]: dose-dependently blocked
effect on PMA activated reporter gene activity [4]: in a dose-dependent manner, reduced
effect on PMA-induced Elk-1 reporter gene expression [5]: dose-dependently decreased

O=C(NOCC1CC1)c1ccc(F)c(F)c1Nc1ccc(I)cc1Cl [PD 184352]
effect on quisqualate activated Erk phosphorylation (positive control) ([2]; CHO-mGluR5 cells, data not shown): block the effect of quisquolate
inhibition of Elk-1 mediated luciferase activity elicited by substance P [1]: completely inhibited
